According to PMC5974779, “Prediction of Drug-Induced Hepatotoxicity Using Long-Term Stable Primary Hepatic 3D Spheroid Cultures in Chemically Defined Conditions” (Toxicological Sciences, 2018):
Where two headings read alike, the source gives them in different places.

Key:
[1] = system: PHH spheroids (hanging-drop); details: cited from earlier work
PHH 2D sandwich cultures = details: cited from earlier work
[2] = cited from earlier work
[3] = cited from earlier work; for Extent of hepatic metabolism: ref DrugBank and Prescribers' Digital Reference database
[4] = system: primary human hepatocytes (PHH) 3D spheroids
clinical DILI in man = details: cited from earlier work
[5] = PHH hanging-drop spheroids, 100x Cmax, ref Proctor 2017
[6] = PHH 2D sandwich cultures, 100x Cmax, ref Xu 2008
[7] = therapeutic total cmax, ref PMID
[8] = clinical DILI classification in man (POS/NEG)
[9] = clinical DILI classification used in this study, Supplementary Table 2, ref Chen et al., 2011, Guo et al., 2005, O'Brien et al., 2006, Sakatis et al., 2012, Suzuki et al., 2010, Xu et al., 2008
[10] = clinical DILI classification, Supplementary Table 1, ref Chen et al., 2011, Guo et al., 2005, O'Brien et al., 2006, Sakatis et al., 2012, Suzuki et al., 2010, Xu et al., 2008
[11] = reported pattern of liver damage, Supplementary Table 2, ref literature
[12] = DILI classification score, ref Suzuki et al. (2010)
[13] = FDA drug labeling DILI score, ref Chen et al., 2011
[14] = clinical DILI classification, ref Xu et al. (2008)

Structure (SMILES)	2Dsw (Xu 2008) 100x (PHH 2D sandwich cultures; [6])	Cmax [2, 7]	Extent of hepatic metabolism [3]	Chemically defined spheroids (this study) 20x [4]	DILI in vivo (clinical DILI in man; [8])	Classified as (clinical DILI in man; [9])	DILI in vivo (clinical DILI in man; [10])	Type of DILI (clinical DILI in man; [11])	Classified as (clinical DILI in man; in vivo)	Clinical DILI class (panel heading of Figure 4) (clinical DILI in man; in vivo)	DILI in vivo (clinical DILI in man; in vivo)	FDA (0-8) (clinical DILI in man; in vivo)	Type of DILI (clinical DILI in man; in vivo)	Xu et al. (2008) (clinical DILI in man; in vivo)	further results
CCCCc1oc2ccccc2c1C(=O)c1cc(I)c(OCCN(CC)CC)c(I)c1 [Amiodarone]	Positive	–	–	–	–	–	–	–	–	–	–	–	–	–	Hanging-drop spheroids (Proctor 2017) 100x [1, 5]: Positive
C[C@H](CCC(=O)O)[C@H]1CC[C@H]2[C@@H]3[C@H](O)C[C@@H]4C[C@H](O)CC[C@]4(C)[C@H]3CC[C@]12C [Chenodiol]	Positive	8000 nM	Extensive	Positive	POS	POS	POS	Cholestatic injury	–	–	–	–	–	–	–
Cc1cc(C2CCCCC2)n(O)c(=O)c1 [Ciclopirox]	Negative	373 nM	Extensive	Negative	NEG	NEG	NEG	Non-hepatotoxic	–	–	–	–	–	–	–
NCCc1ccc(O)c(O)c1 [Dopamine]	Negative	121 nM	Extensive	Negative	–	–	–	–	NEG	DILI negative	NEG	0	Non-hepatotoxic	Negative	–
NCC1(CC(=O)O)CCCCC1 [Gabapentin]	–	–	Minimal	Negative	NEG	NEG	NEG	Non-hepatotoxic	–	–	–	–	–	–	Cmax ([2]; human, in vivo): 14400 nM; 2Dsw (Xu 2008) 100x (PHH 2D sandwich cultures): Negative; Suzuki et al. (2010) (clinical DILI in man; [12]): 1; FDA (0-8) (clinical DILI in man; [13]): 3; Xu et al. (2008) (clinical DILI in man; [14]): Negative
O=C(OCC(O)CO)c1ccccc1Nc1ccnc2cc(Cl)ccc12 (stereo not shown) [Glafenine]	Negative	1880 nM	Extensive	Negative	–	–	–	–	POS	Severe DILI	POS	Withdrawn	Hepatocellular injury	Positive	FDA (Severity) (clinical DILI in man; in vivo): most DILI concern; Sakatis et al. (2012) (clinical DILI in man; in vivo): Hepatotoxic
COc1ccc2c(c1)c(CC(=O)O)c(C)n2C(=O)c1ccc(Cl)cc1 [Indomethacin]	–	–	–	Positive	–	–	–	–	–	–	–	–	–	–	hepatotoxicity classification in hanging-drop PHH spheroids ([1]; 100× cmax, 2 weeks, ref Proctor et al., 2017): previously missed; hepatotoxicity evaluation in CD-spheroids [4]: revealed the DILI liability; hepatotoxicity evaluation in CD-spheroids ([4]; human, 14 days): clearly detected already at 1× cmax exposure levels
CC(C)NCC(O)c1ccc(O)c(O)c1 (stereo not shown) [Isoproterenol]	Negative	2020 nM	Moderate	Negative	–	–	–	–	NEG	DILI negative	NEG	0	Non-hepatotoxic	Negative	O'Brien et al. (2003) (clinical DILI in man; in vivo): Non-toxic
Sc1ncnc2nc[nH]c12 [Mercaptopurine]	Negative	480 nM	Extensive	Positive	–	–	–	–	POS	Severe DILI	POS	8	Cholestatic injury or Mixed hepatitis	Positive	FDA (Severity) (clinical DILI in man; in vivo): most DILI concern; Guo et al. (2005) (clinical DILI in man; in vivo): 3; O'Brien et al. (2003) (clinical DILI in man; in vivo): Severely; Sakatis et al. (2012) (clinical DILI in man; in vivo): Hepatotoxic; Suzuki et al. (2010) (clinical DILI in man; in vivo): 2
CS(=O)(=O)Nc1ccc([N+](=O)[O-])cc1Oc1ccccc1 [Nimesulide]	–	21100 nM	–	Positive	–	–	–	–	POS	Severe DILI	POS	Withdrawn	Hepatocellular injury or Cholestatic injury	Positive	Hanging-drop spheroids (Proctor 2017) 100x [1]: Positive; 2Dsw (Xu 2008) 100x (PHH 2D sandwich cultures): Positive; FDA (Severity) (clinical DILI in man; in vivo): most DILI concern; O'Brien et al. (2003) (clinical DILI in man; in vivo): Severely; Sakatis et al. (2012) (clinical DILI in man; in vivo): Hepatotoxic; Suzuki et al. (2010) (clinical DILI in man; in vivo): 3
Nc1ccc(/N=N/c2ccccc2)c(N)n1 [Phenazopyridine]	Negative	110 nM	Moderate	Negative	POS	POS	POS	Hepatocellular injury	–	–	–	–	–	–	–
NNCCc1ccccc1 [Phenelzine]	Negative	85 nM	Extensive	Negative	–	–	–	–	NEG	DILI negative	NEG	3	Non-hepatotoxic	Negative	Sakatis et al. (2012) (clinical DILI in man; in vivo): Hepatotoxic
O=C1NC(=O)C(c2ccccc2)(c2ccccc2)N1 [Phenytoin]	Positive	21700 nM	Extensive	Negative	–	–	–	–	POS	Severe DILI	POS	8	Hepatocellular injury or Mixed hepatitis	Positive	FDA (Severity) (clinical DILI in man; in vivo): less DILI concern; Guo et al. (2005) (clinical DILI in man; in vivo): 2; Sakatis et al. (2012) (clinical DILI in man; in vivo): Hepatotoxic; Suzuki et al. (2010) (clinical DILI in man; in vivo): 2
CC[C@@H]1C(=O)OC[C@@H]1Cc1cncn1C [Pilocarpine]	Negative	84 nM	Minimal	Negative	NEG	NEG	NEG	Non-hepatotoxic	–	–	–	–	–	–	FDA (0-8) (clinical DILI in man; [13]): 3; Xu et al. (2008) (clinical DILI in man; [14]): Negative
COc1cc(NC(C)CCCN)c2ncccc2c1 (stereo not shown) [Primaquine]	Negative	1080 nM	Extensive	Negative	NEG	NEG	NEG	Non-hepatotoxic	–	–	–	–	–	–	hepatotoxicity evaluation in CD-spheroids [4]: did not cause apparent toxicity at any concentration tested; FDA (Severity) (clinical DILI in man; FDA drug labeling DILI concern, ref Chen et al., 2011): no DILI concern; FDA (0-8) (clinical DILI in man; [13]): 0; Xu et al. (2008) (clinical DILI in man; [14]): Negative; Clinical DILI classification (Figure 5) (clinical DILI in man; structural analogue pairs, Figure 5, ref Chen et al., 2011, Xu et al., 2008 and others): DILI negative
Cc1ncc(CO)c(CO)c1O [Pyridoxine]	Negative	122 nM	Extensive	Negative	–	–	–	–	NEG	DILI negative	NEG	0	Non-hepatotoxic	Negative	O'Brien et al. (2003) (clinical DILI in man; in vivo): Non-toxic
CCOC(=O)[C@H](CCc1ccccc1)N[C@@H](C)C(=O)N1Cc2ccccc2C[C@H]1C(=O)O [Quinapril]	Negative	1200 nM	Moderate	Negative	POS	POS	POS	Cholestatic injury	–	–	–	–	–	–	Guo et al. (2005) (clinical DILI in man; DILI classification score, ref Guo et al. (2005)): 3; Suzuki et al. (2010) (clinical DILI in man; [12]): 1; FDA (0-8) (clinical DILI in man; [13]): 3; Xu et al. (2008) (clinical DILI in man; [14]): Positive
Cc1nc2n(c(=O)c1CCN1CCC(c3noc4cc(F)ccc34)CC1)CCCC2 [Risperidone]	Negative	80 nM	Extensive	Negative	–	–	–	–	POS	High DILI concern	POS	3	Hepatocellular injury, Cholestatic injury or Mixed hepatitis	Positive	first pass metabolism ([3]; ref Madden et al., 1995, El-Hage and Surguladze, 2010, Rawden et al., 2000, Villaverde et al.): extensive first pass metabolism; Guo et al. (2005) (clinical DILI in man; in vivo): 2; Suzuki et al. (2010) (clinical DILI in man; in vivo): 1
Clc1ccccc1CN1CCc2sccc2C1 [Ticlopidine]	Positive	8070 nM	–	–	–	–	–	–	–	–	–	–	–	–	Hanging-drop spheroids (Proctor 2017) 100x [1, 5]: Positive
